Laboratory results from US6355799B1, “Substituted benzene compounds, process for their preparation, and herbicidal and defoliant compositions containing them” (ISK Americas Incorporated, priority 1997, dated 2002).

How the values were obtained:
Type in all cases: in vivo
[1] = tested on: lambsquarters (Chenopodium album, CHEAL); experiment: Pre-emerge test, greenhouse herbicide activity screening; settings: for phytotoxicity rating CHEAL: pre-emerge, 14 days after application, scale 0-100; for Pre-emerge Herbicidal Activity CHEAL: phytotoxicity rating 0-100, 14 days after application
Method in brief: (§1)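 Sandy loam pots; pre-emerge: sown 1 d pre-spray, surface-watered after, then bottom-watered. Post-emerge: sown 8–21 d before, 2–3 leaf stage, + 0.25% v/v NIS, bottom-watered. Acetone, 187 l/ha track spray, 15–1000 g ai/ha. 0–100 injury score, day 14.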

[2] = tested on: ivyleaf morningglory (Ipomoea hederacea, IPOHE); experiment: as above; settings: for phytotoxicity rating IPOHE: pre-emerge, 14 days after application, scale 0-100; for Pre-emerge Herbicidal Activity IPOHE: phytotoxicity rating 0-100, 14 days after application
Method in brief: as §1

[3] = tested on: green foxtail (Setaria viridis, SETVI); experiment: as above; settings: for phytotoxicity rating SETVI: pre-emerge, 14 days after application, scale 0-100; for Pre-emerge Herbicidal Activity SETVI: phytotoxicity rating 0-100, 14 days after application
Method in brief: as §1

[4] = tested on: velvetleaf (Abutilon theophrasti, ABUTH); experiment: as above; settings: for phytotoxicity rating ABUTH: pre-emerge, 14 days after application, scale 0-100; for Pre-emerge Herbicidal Activity ABUTH: phytotoxicity rating 0-100, 14 days after application
Method in brief: as §1

[5] = tested on: large crabgrass (Digitaria sanguinalis, DIGSA); experiment: as above; settings: for phytotoxicity rating DIGSA: pre-emerge, 14 days after application, scale 0-100; for Pre-emerge Herbicidal Activity DIGSA: phytotoxicity rating 0-100, 14 days after application
Method in brief: as §1

[6] = tested on: barnyardgrass (Echinochloa crus-galli, ECHCG); experiment: as above; settings: for phytotoxicity rating ECHCG: pre-emerge, 14 days after application, scale 0-100; for Pre-emerge Herbicidal Activity ECHCG: phytotoxicity rating 0-100, 14 days after application
Method in brief: as §1

[7] = tested on: johnsongrass (Sorghum halepense, SORHA); experiment: as above; settings: for phytotoxicity rating SORHA: pre-emerge, 14 days after application, scale 0-100; for Pre-emerge Herbicidal Activity SORHA: phytotoxicity rating 0-100, 14 days after application
Method in brief: as §1

[8] = tested on: common ragweed (Ambrosia artemisizfolia L., AMBEL); experiment: as above; settings: for phytotoxicity rating AMBEL: pre-emerge, 14 days after application, scale 0-100; for Pre-emerge Herbicidal Activity AMBEL: phytotoxicity rating 0-100, 14 days after application
Method in brief: as §1

[9] = tested on: sicklepod (Cassia obtusifolia, CASOB); experiment: as above; settings: for phytotoxicity rating CASOB: pre-emerge, 14 days after application, scale 0-100; for Pre-emerge Herbicidal Activity CASOB: phytotoxicity rating 0-100, 14 days after application
Method in brief: as §1

[10] = tested on: upland rice (Oryza sp., var. Tebonnet, RICE); experiment: Pre-emerge test, crop safety; settings: for phytotoxicity rating RICE (crop damage): pre-emerge, 14 days after application, scale 0-100; for Pre-emerge Herbicidal Activity RICE: crop damage rating 0-100, 14 days after application
Method in brief: (§2)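 Rating: 0–100 visual injury, 14 DAA. Application: acetone, 187 l/ha, 15–1000 g ai/ha, flat-fan track sprayer with nozzle 40–45 cm above soil or canopy. Post-emerge runs used 0.25% v/v surfactant on 2–3 leaf plants.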

[11] = tested on: field corn (Zea mays L., var. Dekalb 535, CORN); experiment: Pre-emerge test, crop safety; settings: for phytotoxicity rating CORN (crop damage): pre-emerge, 14 days after application, scale 0-100; for Pre-emerge Herbicidal Activity CORN: crop damage rating 0-100, 14 days after application
Method in brief: as §2

[12] = tested on: upland rice (Oryza sp., var. Tebonnet, RICE); experiment: Post-emerge test, crop safety; settings: post-emerge, 14 days after application, rating scale 0-100
Method in brief: as §1

[13] = tested on: field corn (Zea mays L., var. Dekalb 535, CORN); experiment: Post-emerge test, crop safety; settings: post-emerge, 14 days after application, rating scale 0-100
Method in brief: as §1

[14] = tested on: lambsquarters (Chenopodium album, CHEAL); experiment: Post-emerge test, greenhouse herbicide activity screening; settings: post-emerge, 14 days after application, rating scale 0-100
Method in brief: (§3)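 Compounds in acetone were track-sprayed at 187 l/ha, 15–1000 g ai/ha, onto sandy loam pots. Pre-emerge seeds were sown one day before spraying, with surface watering afterwards. Post-emerge plants were at the 2–3 leaf stage and sprayed with 0.25% v/v non-ionic surfactant. Injury was rated 0–100 at 14 days.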

[15] = tested on: ivyleaf morningglory (Ipomoea hederacea, IPOHE); experiment: as above; settings: post-emerge, 14 days after application, rating scale 0-100
Method in brief: as §3

[16] = tested on: green foxtail (Setaria viridis, SETVI); experiment: as above; settings: post-emerge, 14 days after application, rating scale 0-100
Method in brief: as §3

[17] = tested on: velvetleaf (Abutilon theophrasti, ABUTH); experiment: as above; settings: post-emerge, 14 days after application, rating scale 0-100
Method in brief: as §3

[18] = tested on: large crabgrass (Digitaria sanguinalis, DIGSA); experiment: as above; settings: post-emerge, 14 days after application, rating scale 0-100
Method in brief: as §3

[19] = tested on: barnyardgrass (Echinochloa crus-galli, ECHCG); experiment: as above; settings: post-emerge, 14 days after application, rating scale 0-100
Method in brief: as §3

[20] = tested on: johnsongrass (Sorghum halepense, SORHA); experiment: as above; settings: post-emerge, 14 days after application, rating scale 0-100
Method in brief: as §3

[21] = tested on: redroot pigweed (Amaranthus retroflexus, AMARE); experiment: as above; settings: post-emerge, 14 days after application
Method in brief: as §3

[22] = tested on: sicklepod (Cassia obtusifolia, CASOB); experiment: as above; settings: post-emerge, 14 days after application, rating scale 0-100
Method in brief: as §3

[23] = tested on: redroot pigweed (Amaranthus retroflexus, AMARE); experiment: Pre-emerge test, greenhouse herbicide activity screening; settings: for phytotoxicity rating AMARE: pre-emerge, 14 days after application, scale 0-100; for Pre-emerge Herbicidal Activity AMARE: phytotoxicity rating 0-100, 14 days after application
Method in brief: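 Plants grown in 10 cm pots of sandy loam mix received acetone-dissolved compounds through a moving flat-fan nozzle. Doses ranged from 15 to 1000 g ai/ha. Pre-emerge pots were seeded one day earlier, post-emerge pots 8–21 days earlier. Fourteen days on, each pot was graded 0–100 for damage.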

[24] = 250 g ai/ha, rating scale 0-100

CCCSCC(=O)Nc1c(OC)c(Cl)cc(F)c1-n1c(=O)cc(C(F)(F)F)n(C)c1=O [2-174]
30: phytotoxicity rating IPOHE ([2]; 63 g ai/ha)
100: phytotoxicity rating CHEAL ([1]; 250 g ai/ha) | phytotoxicity rating IPOHE ([2]; 250 g ai/ha) | phytotoxicity rating ABUTH ([4]; 63 g ai/ha) | phytotoxicity rating ABUTH ([4]; 250 g ai/ha) | phytotoxicity rating AMARE ([23]; 250 g ai/ha)
85: CHEAL phytotoxicity rating ([14]; 250 g ai/ha)
25: CORN phytotoxicity rating (crop damage) ([13]; 250 g ai/ha)
10: phytotoxicity rating SORHA ([7]; 63 g ai/ha) | phytotoxicity rating AMBEL ([8]; 63 g ai/ha) | phytotoxicity rating RICE (crop damage) ([10]; 63 g ai/ha) | CORN phytotoxicity rating (crop damage) ([13]; 63 g ai/ha) | SETVI phytotoxicity rating ([16]; 63 g ai/ha) | SETVI phytotoxicity rating ([16]; 250 g ai/ha) | DIGSA phytotoxicity rating ([18]; 250 g ai/ha)
0: phytotoxicity rating ECHCG ([6]; 63 g ai/ha) | phytotoxicity rating CORN (crop damage) ([11]; 63 g ai/ha) | DIGSA phytotoxicity rating ([18]; 63 g ai/ha) | ECHCG phytotoxicity rating ([19]; 63 g ai/ha) | ECHCG phytotoxicity rating ([19]; 250 g ai/ha) | SORHA phytotoxicity rating ([20]; 63 g ai/ha) | SORHA phytotoxicity rating ([20]; 250 g ai/ha)
90: phytotoxicity rating SETVI ([3]; 250 g ai/ha) | phytotoxicity rating SORHA ([7]; 250 g ai/ha) | phytotoxicity rating AMBEL ([8]; 250 g ai/ha) | phytotoxicity rating AMARE ([23]; 63 g ai/ha)
75: CASOB phytotoxicity rating ([22]; 250 g ai/ha)
50: phytotoxicity rating RICE (crop damage) ([10]; 250 g ai/ha)
70: phytotoxicity rating DIGSA ([5]; 250 g ai/ha) | IPOHE phytotoxicity rating ([15]; 63 g ai/ha)
80: phytotoxicity rating CHEAL ([1]; 63 g ai/ha) | phytotoxicity rating CASOB ([9]; 250 g ai/ha) | IPOHE phytotoxicity rating ([15]; 250 g ai/ha) | ABUTH phytotoxicity rating ([17]; 250 g ai/ha)
40: phytotoxicity rating CASOB ([9]; 63 g ai/ha)
60: phytotoxicity rating ECHCG ([6]; 250 g ai/ha) | phytotoxicity rating CORN (crop damage) ([11]; 250 g ai/ha) | ABUTH phytotoxicity rating ([17]; 63 g ai/ha) | AMARE phytotoxicity rating ([21]; 63 g ai/ha, rating scale 0-100) | AMARE phytotoxicity rating [21, 24] | CASOB phytotoxicity rating ([22]; 63 g ai/ha)
55: CHEAL phytotoxicity rating ([14]; 63 g ai/ha)
20: phytotoxicity rating SETVI ([3]; 63 g ai/ha) | phytotoxicity rating DIGSA ([5]; 63 g ai/ha) | RICE phytotoxicity rating (crop damage) ([12]; 63 g ai/ha) | RICE phytotoxicity rating (crop damage) ([12]; 250 g ai/ha)

Cn1c(C(F)(F)F)cc(=O)n(-c2c(F)cc(Cl)c(OCC#N)c2NC(=O)c2ccc3ccccc3c2)c1=O [2-200]
80: Pre-emerge Herbicidal Activity CASOB ([9]; 63 g ai/ha) | Pre-emerge Herbicidal Activity RICE ([10]; 63 g ai/ha)
75: Pre-emerge Herbicidal Activity CORN ([11]; 63 g ai/ha)
100: Pre-emerge Herbicidal Activity CHEAL ([1]; 63 g ai/ha) | Pre-emerge Herbicidal Activity CHEAL ([1]; 250 g ai/ha) | Pre-emerge Herbicidal Activity IPOHE ([2]; 63 g ai/ha) | Pre-emerge Herbicidal Activity IPOHE ([2]; 250 g ai/ha) | Pre-emerge Herbicidal Activity SETVI ([3]; 63 g ai/ha) | Pre-emerge Herbicidal Activity SETVI ([3]; 250 g ai/ha) | Pre-emerge Herbicidal Activity ABUTH ([4]; 63 g ai/ha) | Pre-emerge Herbicidal Activity ABUTH ([4]; 250 g ai/ha) | Pre-emerge Herbicidal Activity DIGSA ([5]; 63 g ai/ha) | Pre-emerge Herbicidal Activity DIGSA ([5]; 250 g ai/ha) | Pre-emerge Herbicidal Activity ECHCG ([6]; 250 g ai/ha) | Pre-emerge Herbicidal Activity SORHA ([7]; 63 g ai/ha) | Pre-emerge Herbicidal Activity SORHA ([7]; 250 g ai/ha) | Pre-emerge Herbicidal Activity AMBEL ([8]; 63 g ai/ha) | Pre-emerge Herbicidal Activity AMBEL ([8]; 250 g ai/ha) | Pre-emerge Herbicidal Activity CASOB ([9]; 250 g ai/ha) | Pre-emerge Herbicidal Activity RICE ([10]; 250 g ai/ha) | Pre-emerge Herbicidal Activity CORN ([11]; 250 g ai/ha) | phytotoxicity rating CHEAL ([14]; 63 g ai/ha) | phytotoxicity rating CHEAL ([14]; 250 g ai/ha) | phytotoxicity rating IPOHE ([15]; 63 g ai/ha) | phytotoxicity rating IPOHE ([15]; 250 g ai/ha) | phytotoxicity rating ABUTH ([17]; 63 g ai/ha) | phytotoxicity rating ABUTH ([17]; 250 g ai/ha) | phytotoxicity rating AMARE ([21]; 63 g ai/ha, rating scale 0-100 (0 no damage, 100 complete death)) | phytotoxicity rating AMARE [21, 24] | phytotoxicity rating CASOB ([22]; 63 g ai/ha) | phytotoxicity rating CASOB ([22]; 250 g ai/ha) | Pre-emerge Herbicidal Activity AMARE ([23]; 63 g ai/ha) | Pre-emerge Herbicidal Activity AMARE ([23]; 250 g ai/ha)
99: Pre-emerge Herbicidal Activity ECHCG ([6]; 63 g ai/ha)
30: phytotoxicity rating SETVI ([16]; 63 g ai/ha)
50: phytotoxicity rating SETVI ([16]; 250 g ai/ha)
10: phytotoxicity rating RICE (crop damage) ([12]; 63 g ai/ha) | phytotoxicity rating CORN (crop damage) ([13]; 63 g ai/ha)
20: phytotoxicity rating RICE (crop damage) ([12]; 250 g ai/ha) | phytotoxicity rating CORN (crop damage) ([13]; 250 g ai/ha)
0: phytotoxicity rating DIGSA ([18]; 63 g ai/ha) | phytotoxicity rating DIGSA ([18]; 250 g ai/ha) | phytotoxicity rating ECHCG ([19]; 63 g ai/ha) | phytotoxicity rating ECHCG ([19]; 250 g ai/ha) | phytotoxicity rating SORHA ([20]; 63 g ai/ha) | phytotoxicity rating SORHA ([20]; 250 g ai/ha)
